The target in assay [1] is Phosphatidylinositol 4,5-bisphosphate 3-kinase catalytic subunit alpha isoform (Homo sapiens, UniProt P42336). The assay is described as follows: KINOMEscan Enzyme Binding Assays. The protocol:
(§1) Kinase enzyme binding affinities of compounds disclosed herein were determined using the KINOMEscan technology performed by DiscoveRx Corporation, San Diego, Calif., USA (www.kinomescan.com).

The target of assay [2] is Phosphatidylinositol 4,5-bisphosphate 3-kinase catalytic subunit beta isoform (Homo sapiens, UniProt P42338). The assay is described as follows: KINOMEscan Enzyme Binding Assays. As to the method:
as §1

Experimental findings from BindingDB's records for patent US10087187 (Janssen Pharmaceutica, 2018) are described below.

The term Kd denotes a measure of binding affinity in units of concentration. Read a high Kd as a looser complex.

Chain of Phosphatidylinositol 4,5-bisphosphate 3-kinase catalytic subunit alpha isoform (P42336 whole entry, canonical isoform): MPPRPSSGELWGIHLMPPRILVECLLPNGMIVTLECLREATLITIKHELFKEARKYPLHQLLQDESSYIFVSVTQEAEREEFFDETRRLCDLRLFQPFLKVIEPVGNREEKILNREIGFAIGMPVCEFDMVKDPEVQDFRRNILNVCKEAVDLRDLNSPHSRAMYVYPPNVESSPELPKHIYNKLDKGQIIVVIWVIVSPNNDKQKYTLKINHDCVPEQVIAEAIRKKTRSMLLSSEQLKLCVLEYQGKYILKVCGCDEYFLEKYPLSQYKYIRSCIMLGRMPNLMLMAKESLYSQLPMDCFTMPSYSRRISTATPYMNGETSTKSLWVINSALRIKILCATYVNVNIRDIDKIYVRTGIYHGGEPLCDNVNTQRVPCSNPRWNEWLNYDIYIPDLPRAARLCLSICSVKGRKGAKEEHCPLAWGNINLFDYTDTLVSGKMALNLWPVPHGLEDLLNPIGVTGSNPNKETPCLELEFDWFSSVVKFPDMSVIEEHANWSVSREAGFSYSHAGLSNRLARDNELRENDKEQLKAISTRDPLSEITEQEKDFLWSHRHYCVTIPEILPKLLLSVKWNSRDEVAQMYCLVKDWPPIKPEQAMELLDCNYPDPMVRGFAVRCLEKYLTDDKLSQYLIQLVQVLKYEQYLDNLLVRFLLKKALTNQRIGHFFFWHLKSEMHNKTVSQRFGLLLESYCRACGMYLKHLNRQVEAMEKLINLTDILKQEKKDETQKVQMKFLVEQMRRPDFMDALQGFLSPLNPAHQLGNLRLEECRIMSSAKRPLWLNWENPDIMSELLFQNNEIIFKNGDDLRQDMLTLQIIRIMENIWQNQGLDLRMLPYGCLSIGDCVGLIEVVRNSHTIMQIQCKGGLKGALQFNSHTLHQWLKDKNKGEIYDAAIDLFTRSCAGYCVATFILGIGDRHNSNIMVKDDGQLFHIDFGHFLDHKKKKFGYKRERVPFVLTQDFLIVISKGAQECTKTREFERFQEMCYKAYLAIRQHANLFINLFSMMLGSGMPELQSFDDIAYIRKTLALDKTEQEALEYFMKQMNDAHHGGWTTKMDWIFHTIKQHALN
Chain of Phosphatidylinositol 4,5-bisphosphate 3-kinase catalytic subunit beta isoform (P42338 whole entry, canonical isoform): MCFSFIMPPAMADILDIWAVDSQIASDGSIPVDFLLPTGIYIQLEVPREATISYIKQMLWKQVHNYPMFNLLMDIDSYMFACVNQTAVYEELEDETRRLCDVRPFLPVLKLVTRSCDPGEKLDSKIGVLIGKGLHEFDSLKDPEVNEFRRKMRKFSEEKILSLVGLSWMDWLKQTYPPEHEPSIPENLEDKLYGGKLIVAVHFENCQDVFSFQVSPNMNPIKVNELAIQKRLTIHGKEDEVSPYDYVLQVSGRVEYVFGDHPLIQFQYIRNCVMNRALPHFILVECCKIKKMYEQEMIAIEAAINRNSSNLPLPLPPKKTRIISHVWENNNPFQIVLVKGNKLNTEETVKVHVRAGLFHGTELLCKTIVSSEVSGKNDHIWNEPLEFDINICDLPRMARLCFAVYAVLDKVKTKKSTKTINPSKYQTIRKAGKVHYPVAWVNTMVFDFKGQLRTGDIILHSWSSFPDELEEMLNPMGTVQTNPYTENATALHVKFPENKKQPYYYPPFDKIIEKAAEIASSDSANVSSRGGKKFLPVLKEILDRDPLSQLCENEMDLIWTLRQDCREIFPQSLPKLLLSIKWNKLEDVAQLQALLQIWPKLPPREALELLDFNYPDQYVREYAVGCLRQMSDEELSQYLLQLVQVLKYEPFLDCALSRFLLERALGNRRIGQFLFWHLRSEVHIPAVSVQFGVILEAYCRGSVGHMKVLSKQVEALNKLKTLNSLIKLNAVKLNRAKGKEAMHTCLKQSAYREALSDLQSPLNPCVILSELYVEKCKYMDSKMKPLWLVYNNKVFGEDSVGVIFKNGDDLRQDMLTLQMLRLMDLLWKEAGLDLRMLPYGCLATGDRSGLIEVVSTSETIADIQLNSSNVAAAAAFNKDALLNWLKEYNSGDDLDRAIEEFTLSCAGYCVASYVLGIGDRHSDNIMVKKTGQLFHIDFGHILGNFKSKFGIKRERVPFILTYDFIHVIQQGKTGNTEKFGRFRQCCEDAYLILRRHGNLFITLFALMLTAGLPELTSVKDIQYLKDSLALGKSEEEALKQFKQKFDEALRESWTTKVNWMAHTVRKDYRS

Take `CCc1c(F)cccc1Cc1c(CNCCO)nc2c(N)cc(N3CCOCC3)nn12` [US10087187, Compound 101]: the Kd is 5890 nM in assay [1] and 6.2 nM in assay [2].
In the case of `Cc1c(Cc2c(CO)nc3c(-c4cnc[nH]4)cc(N4CCOCC4)nn23)cccc1C(F)(F)F` [US10087187, Compound 19], the values for the Kd in assay [1] and in assay [2] were 886 nM and 1.9 nM, respectively.
